# Assay results: patent US11149057B2, “Neuroactive steroids, compositions, and uses thereof” (Sage Therapeutics, Inc., priority 2014, dated 2021)
# Experiments:
# [1] = biological target: [35S]-TBPS binding, rat brain cortical membranes; experiment: Steroid inhibition of [35S]-TBPS binding; settings: 3 nM [35S]-TBPS, in the presence of 5 μM GABA
# Experimental: [35S]-Butylbicyclophosphorothionate (TBPS) binding assays using rat brain cortical membranes in the presence of 5 μM GABA has been described (Gee et al, J. Pharmacol. Exp. Ther. 1987, 241, 346-353; Hawkinson et al, Mol. Pharmacol. 1994, 46, 977-985; Lewin, A. H et al., Mol. Pharmacol. 1989, 35, 189-194).
# Briefly, cortices are rapidly removed following decapitation of carbon dioxide-anesthetized Sprague-Dawley rats (200-250 g). The cortices are homogenized in 10 volumes of ice-cold 0.32 M sucrose using a glass/teflon homogenizer and centrifuged at 1500×g for 10 min at 4° C. The resultant supernatants are centrifuged at 10,000×g for 20 min at 4° C. to obtain the P2 pellets. The P2 pellets are resuspended in 200 mM NaCl/50 mM Na—K phosphate pH 7.4 buffer and centrifuged at 10,000×g for 10 min at 4° C. This washing procedure is repeated twice and the pellets are resuspended in 10 volumes of buffer. Aliquots (100 μL) of the membrane suspensions are incubated with 3 nM [^35S]-TBPS and 5 μL aliquots of test drug dissolved in dimethyl sulfoxide (DMSO) (final 0.5%) in the presence of 5 μM GABA. The incubation is brought to a final volume of 1.0 mL with buffer. Nonspecific binding is determined in the presence of 2 μM unlabeled TBPS and ranged from 15 to 25%. […] Filter bound radioactivity is measured by liquid scintillation spectrometry. […]
# α1β2γ2 GABAA receptors = biological target: T1, α1β2γ2 GABAA receptors (Homo sapiens, UniProt P14867+P47870); experiment: Patch clamp electrophysiology (QPatch) of recombinant α1β2γ2 GABAA receptors in LTK cells; assay type: cell-based; settings: 10 μM test article, GABA EC20 = 2 μM, read-out: GABA (α1β2γ2) Qpatch in Ltk, % efficacy at 10 μM
# T1 construct: expressed in transfected cells
# α4β3δ GABAA receptors = biological target: T2, α4β3δ GABAA receptors (Homo sapiens, UniProt P28472+P48169); experiment: Manual patch clamp electrophysiology of recombinant α4β3δ GABAA receptors in CHO cells; assay type: cell-based; settings: 10 μM test article, GABA EC20 = 2 μM, read-out: GABA (α4β3δ) Manual patch in CHO, % efficacy at 10 μM
# T2 construct: expressed in transfected cells; host or cells: CHO cells (transient transfection, Lipofectamine)
# T2 sequence (P48169 36-554): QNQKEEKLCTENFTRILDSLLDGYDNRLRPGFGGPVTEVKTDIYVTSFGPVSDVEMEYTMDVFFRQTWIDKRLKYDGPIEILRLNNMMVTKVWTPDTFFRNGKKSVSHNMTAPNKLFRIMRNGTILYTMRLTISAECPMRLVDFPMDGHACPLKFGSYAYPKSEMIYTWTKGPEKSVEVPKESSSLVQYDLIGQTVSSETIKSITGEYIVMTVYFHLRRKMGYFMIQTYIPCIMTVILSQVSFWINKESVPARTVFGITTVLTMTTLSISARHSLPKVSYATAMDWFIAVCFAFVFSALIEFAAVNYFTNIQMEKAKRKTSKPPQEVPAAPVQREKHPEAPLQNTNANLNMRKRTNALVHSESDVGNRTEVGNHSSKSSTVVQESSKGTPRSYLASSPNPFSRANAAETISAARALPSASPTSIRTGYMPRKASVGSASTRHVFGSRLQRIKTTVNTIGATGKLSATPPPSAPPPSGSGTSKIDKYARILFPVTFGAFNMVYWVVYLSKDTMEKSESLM
# T2 sequence (P28472 26-473): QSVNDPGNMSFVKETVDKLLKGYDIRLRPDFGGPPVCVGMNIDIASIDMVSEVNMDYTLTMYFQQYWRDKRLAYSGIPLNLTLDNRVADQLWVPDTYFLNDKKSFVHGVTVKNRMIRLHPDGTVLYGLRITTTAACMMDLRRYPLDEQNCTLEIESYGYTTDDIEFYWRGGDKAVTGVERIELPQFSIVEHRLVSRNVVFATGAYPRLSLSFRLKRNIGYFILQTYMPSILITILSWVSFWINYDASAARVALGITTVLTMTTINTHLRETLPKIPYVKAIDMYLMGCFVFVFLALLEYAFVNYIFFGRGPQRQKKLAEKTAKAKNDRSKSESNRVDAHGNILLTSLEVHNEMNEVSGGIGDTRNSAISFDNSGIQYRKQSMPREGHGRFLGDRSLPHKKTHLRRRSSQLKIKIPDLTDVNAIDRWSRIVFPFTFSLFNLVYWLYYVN
# T2 sequence (O14764 17-452 partner limits assumed): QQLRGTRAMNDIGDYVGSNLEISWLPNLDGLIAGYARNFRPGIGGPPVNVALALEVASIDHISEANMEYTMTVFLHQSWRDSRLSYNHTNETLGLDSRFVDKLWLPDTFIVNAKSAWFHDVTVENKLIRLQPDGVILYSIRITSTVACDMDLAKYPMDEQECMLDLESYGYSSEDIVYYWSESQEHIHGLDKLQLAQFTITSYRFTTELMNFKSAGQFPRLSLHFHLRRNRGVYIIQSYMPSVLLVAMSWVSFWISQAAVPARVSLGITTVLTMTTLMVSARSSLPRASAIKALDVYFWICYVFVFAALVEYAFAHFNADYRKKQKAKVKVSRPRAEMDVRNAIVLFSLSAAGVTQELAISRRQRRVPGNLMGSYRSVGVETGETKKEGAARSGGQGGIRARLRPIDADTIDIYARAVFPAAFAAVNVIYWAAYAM
# T1 sequence (P14867 28-456): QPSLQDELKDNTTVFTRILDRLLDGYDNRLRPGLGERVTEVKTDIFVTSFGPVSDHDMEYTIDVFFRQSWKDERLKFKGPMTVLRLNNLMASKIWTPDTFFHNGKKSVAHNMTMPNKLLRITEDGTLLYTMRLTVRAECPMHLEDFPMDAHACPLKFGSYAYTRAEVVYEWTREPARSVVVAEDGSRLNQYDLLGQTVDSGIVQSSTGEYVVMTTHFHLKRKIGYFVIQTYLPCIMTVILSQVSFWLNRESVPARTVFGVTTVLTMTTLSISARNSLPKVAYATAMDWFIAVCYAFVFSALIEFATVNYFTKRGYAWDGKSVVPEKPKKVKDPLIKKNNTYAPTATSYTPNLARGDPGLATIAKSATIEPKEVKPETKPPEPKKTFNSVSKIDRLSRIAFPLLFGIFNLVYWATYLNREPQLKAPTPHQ
# T1 sequence (P47870 25-512 limits assumed): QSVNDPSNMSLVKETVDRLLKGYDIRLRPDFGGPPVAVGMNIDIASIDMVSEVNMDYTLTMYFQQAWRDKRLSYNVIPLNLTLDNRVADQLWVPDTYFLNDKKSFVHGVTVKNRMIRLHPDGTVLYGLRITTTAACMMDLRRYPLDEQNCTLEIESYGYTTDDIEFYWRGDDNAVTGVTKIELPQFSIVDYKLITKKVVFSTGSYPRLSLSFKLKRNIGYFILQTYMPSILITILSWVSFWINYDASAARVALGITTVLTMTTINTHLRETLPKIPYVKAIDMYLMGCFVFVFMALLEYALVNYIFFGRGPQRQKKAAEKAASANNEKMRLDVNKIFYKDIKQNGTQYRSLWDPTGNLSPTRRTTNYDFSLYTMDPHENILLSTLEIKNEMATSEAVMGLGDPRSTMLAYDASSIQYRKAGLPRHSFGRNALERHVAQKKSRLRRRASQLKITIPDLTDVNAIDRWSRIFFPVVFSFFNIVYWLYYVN
# T1 sequence (P18507 40-475 partner): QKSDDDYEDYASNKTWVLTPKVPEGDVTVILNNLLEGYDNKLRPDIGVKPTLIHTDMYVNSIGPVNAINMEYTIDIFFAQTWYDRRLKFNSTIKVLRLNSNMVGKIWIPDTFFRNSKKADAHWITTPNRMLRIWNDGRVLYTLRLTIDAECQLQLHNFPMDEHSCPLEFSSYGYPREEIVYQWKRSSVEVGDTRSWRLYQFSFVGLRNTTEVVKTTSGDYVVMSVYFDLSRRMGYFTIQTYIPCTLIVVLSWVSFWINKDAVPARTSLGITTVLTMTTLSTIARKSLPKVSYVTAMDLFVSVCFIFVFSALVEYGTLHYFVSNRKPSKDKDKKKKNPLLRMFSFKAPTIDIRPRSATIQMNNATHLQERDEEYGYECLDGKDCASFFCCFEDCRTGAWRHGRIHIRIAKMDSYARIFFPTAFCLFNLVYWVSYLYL
smiles,measurement,setting,value
CC(=O)[C@H]1CC[C@H]2[C@@H]3CC[C@@H]4C[C@](C)(O)CC[C@]4(COC(C)C)[C@H]3CC[C@]12C [Compound 5],IC50,[1],< 10 nM
same,Emax at 10 µM,α1β2γ2 GABAA receptors,> 500%
same,Emax at 10 µM,α4β3δ GABAA receptors,> 500%
